A word on the CC50: it is the concentration at which the toxic effect on the cells reaches its halfway point. Low readings indicate harm at low concentration, high ones better tolerance by the cells. As usually defined, the IC50 is the midpoint of a concentration-inhibition curve.

This is an account of results in article PMC5532363, “Synergistic blending of high-valued heterocycles inhibits growth of Plasmodium falciparum in culture and P. berghei infection in mouse model” (Scientific Reports, 2017).

Data set [1] can be described thus: MTT cytotoxicity assay in U937 cells. The format is cell-based. The conditions noted are these: human; for selectivity ratio at 24 h: U937 cells (CC50) versus 3D7 parasites (IC50), read-out: selectivity index (SI); for CC50 at 24 h: U937 cells, MTT. The procedure:
As a final step in the investigational pipeline, we determined the cytotoxic effect of the four active analogues (6a, 6h, 6m and 6u) in U937 cell lines by measuring 50% cytotoxic concentrations (CC50) and calculating selectivity indices (SIs) as a measure of toxicity in human cells.
Cytotoxicity of the 4 select Pht compounds on human cells was evaluated by assessing cell viability of the U937, a human acute monocyte leukemia cell lines by use of the MTT assay. U937 was acquired from American Type Culture Collection (ATCC, Rockville, MD) and maintained in RPMI 1640 medium supplemented with 10% fetal bovine serum, and Penicillin-streptomycin (1% v/v) (Gibco, UK) at 37 °C. Robust U937 cells at a concentration of 80,000 cells/ml were plated into 96-well plates and incubated for 24 hours. Six concentrations of the Pht compounds were added in a two-fold dilution from starting concentration of 50 to 1.56 µM in triplicate and incubated with the cells for 24 hours. This was followed by addition of 10 µL MTT solution (5 mg/mL) into each well, incubated for 4 hour at 37 °C followed by addition of 50 µL DMSO to dissolve the formazan precipitate according to manufacturer’s protocol. Aliquots were drawn from each well and color intensity was measured spectrophotometrically in an ELISA plate reader (Biotek, ELx800) at 540 nm. The cell viability ratio was calculated by the following formula: % cytotoxicity = [Mean OD of test cells] − [Mean OD of control cells]/[Mean OD of control cells] × 100. Viability counts were then plotted against corresponding drug concentrations to yield cytotoxicity (CC50) through non-linear regression (sigmoid dose-response/variable slope equation). Drug CC50 values were then used to define selectivity indices, which is a measure of drug safety in human relative to parasitic cells and was calculated as the ratio of the CC50 value determined on the U937 cells (cytotoxicity) and the IC50 value determined on parasite growth inhibition 3D7 (anti-plasmodial activity). In this study, we set SI > 2 as cut-off as an indicative of low drug cytotoxicity.
Background: Formazan colour is commonly taken as a measure of viable cells.

A further data set relates to P. falciparum 3D7. The data set can be described thus: Fixed-ratio isobologram drug interaction assay with CQ/DHA, 3D7. The format is cell-based, Plasmodium falciparum. The conditions noted are these: Pf3D7. The procedure:
(§1) A modified fixed-ratio isobologram method was used to assess interaction between CQ/DHA and Pht analogues. Briefly, a total of 5 solutions containing fixed-ratio mixtures of Pht derivatives with either CQ or DHA were prepared in the following ratios: 1:1, 2:1, 3:2, 2:3, and 1:4. The starting concentrations for ten 2 fold-serial dilutions across the microtiter plate were assigned so that the IC50 of each drug would be in the 5th serial dilution of the plate. Each drug was tested alone and at fixed ratios of its IC50. The assessment of drug interaction was based on the calculation of the fractional inhibitory concentration (FIC) of two drugs in the […]. FIC was calculated for each association by dividing the IC50 of the drug in the combination by the IC50 of the drug alone.

The subject of another data set is CQ resistant PfW2 strain. The data set can be described thus: SYBR Green I growth inhibition assay, P. falciparum W2 culture. The format is cell-based. To be noted: Plasmodium falciparum. From the text: Antimalarial activity of all the listed Pht analogues was initially assessed on asynchronous cultures of P. falciparum 3D7 (Pf3D7) clone using the SYBR Green assay. […] The mean IC50 values are based on three separate experiments (Table 1).
The laboratory-adapted P. falciparum strains 3D7 (Africa; CQ sensitive) and W2 (Africa; CQ resistant), were acquired from Malaria Research and Reference Reagent Resource Center (MR4) (Manassas, VA, USA) and maintained with type O +ve erythrocytes suspended in continuous complete culture medium as described. Complete culture media consisted of 10.43 g/litre of RPMI 1640-HEPES supplemented with 10% (vol/vol) human AB serum, 92.6 mg/litre L-glutamine, 50 mg/liter hypoxanthine, 2 g/litre sodium bicarbonate (Sigma-Aldrich, St. Louis, MO). Incubation of cultures was at 37 °C and maintained in a low oxygen atmosphere (5% O2, 5% CO2, 90% N). The levels of parasitemia in the cultures were maintained at between 2 and 10%, with 5% hematocrit. Media was changed after every 24 hours and parasitemia monitored every 48 hours. Synchronous cultures were prepared by sorbitol lysis. Stock solutions of the Pht, Pht analogues, and DHA were prepared in absolute dimethyl sulfoxide (DMSO) while CQ was prepared in distilled water. The prepared drug stock solutions were used immediately or stored at −80 °C for not longer than one month before use. Stock solutions were further diluted in serum free RPMI 1640 media (stock solution solvent final conc. 0.05%) before performing a 2-fold serial dilution to achieve dose ranges of 0.2 µM to 100 µM (Pht and derivatives), 7.8 to 2,000 nM (CQ) and 0.17 to 87.5 nM (DHA). 25 μL of the drug diluents were aliquoted into 96 well plates and used immediately. Alternatively, the stock solutions were diluted in distilled water, 2-fold serial dilution performed on a 96 well plate and allowed to air dry in a laminar flow hood after which dried plates were stored at 4 °C until use. SYBR Green I assay technique with additional modification was used for drug susceptibility testing of the parasites. Parasite cultures of >1% parasitemia were diluted to 1% parasitemia and 2% hematocrit and 200 μL were transferred onto drug pre-dosed plates and incubated at 37 °C for 90 hours, [40]. […] Relative fluorescence units (RFU) were read using the Perkin Elmer Wallac 1420 fluorescence plate reader, with excitation and emission wavelengths of 485 nm and 535 nm respectively. The readouts values were aligned with corresponding drug doses and analysis performed by Graph-pad Prism software. The drug concentrations (x value) were transformed using X = Log[X] and plotted against the counts (y values) and the data analysed by non-linear regression (sigmoid dose-response/variable slope equation) to yield the IC50.

Another data set deals with P. falciparum W2. The data set can be described thus: Fixed-ratio isobologram drug interaction assay with CQ/DHA, W2. The format is cell-based, Plasmodium falciparum. The conditions noted are these: PfW2. The method, then: as §1

On to `CC[C@@H](C)[C@H](c1nc2ccccc2n1Cc1cn(-c2ccc(F)cc2)nn1)N1C(=O)c2ccccc2C1=O` [Compound 6h], for which, in data set [1], the selectivity ratio at 24 h was determined as 41.2 ± 1.7 and the midpoint of cytotoxicity, the CC50 at 24 h, lay at 28800 ± 670 nM. The “interaction when combined with CQ and DHA” value (shortened to “interaction when combined”) in the data set on P. falciparum 3D7 is “synergistic activity”. For the same compound, the concentration for half-maximal inhibition (IC50) in the data set on CQ resistant PfW2 strain is 1300 nM. The “interaction when combined” value with P. falciparum W2 is recorded as “synergistic activity”.
In the case of `CC(C)C[C@H](c1nc2ccccc2n1Cc1c[nH]nn1)N1C(=O)c2ccccc2C1=O` [Compound 6u], the selectivity ratio at 24 h in data set [1] amounted to 2.31 ± 0.76. In addition, half-maximal cytotoxicity in data set [1] (CC50 at 24 h) was put at 2080 ± 1600 nM. Besides, the “interaction when combined” value with P. falciparum 3D7 and in the data set on P. falciparum W2 was “synergistic activity” throughout. Further, in the data set with CQ resistant PfW2 strain, the IC50 was 900 nM.
